What was measured:
Assay in all cases: Ellman assay, […] nm, head homogenate
Type in all cases: biochemical, Haematobia irritans
[1] = target: T1, acetylcholinesterase (AChE), Ona field population; conditions: 0.4 mM acetylthiocholine, pH 7.8 phosphate, 25 °C, 10 min preincubation; covalent; stated gain
T1 construct: gene Ace; native enzyme in homogenate of five pooled fly heads; mixed genotypes, G262A in a small part of the flies, other mutations not screened

[2] = target: T2, acetylcholinesterase (AChE), Labelle field population; conditions: 0.4 mM acetylthiocholine, pH 7.8 phosphate, 25 °C, 10 min preincubation; covalent
T2 construct: gene Ace; native enzyme in homogenate of five pooled fly heads

[3] = target: T3, acetylcholinesterase (AChE), Kerrville susceptible strain; conditions: 0.4 mM acetylthiocholine, pH 7.8 phosphate, 25 °C, 10 min preincubation; covalent
T3 construct: gene Ace; not purified; G262A absent in this strain

[4] = target: T4, acetylcholinesterase (AChE), BTU field population; conditions: 0.4 mM acetylthiocholine, pH 7.8 phosphate, 25 °C, 10 min preincubation; covalent
T4 construct: gene Ace; native enzyme in homogenate of five pooled fly heads; mixed genotypes, G262A in a small part of the flies, other mutations not screened

Structure (SMILES): CCOP(=O)(OCC)Oc1cc(C)nc(C(C)C)n1 [diazoxon]
- IC50 [1]: 20.5 nM
- IC50 [2]: 9.2 nM
- IC50 [3]: 8.2 nM
- IC50 [4]: 6.1 nM
